Assay results published in patent publication US7312225B2, “Macrocyclic pyrimidines, their production and use as pharmaceutical agents” (Bayer Schering Pharma AG, priority 2002, dated 2007).
Where a name gives a salt, the structure may show the parent alone. Read-outs that look alike come from different tables or passages of the source.

What was measured:
MCF7 = assay: Proliferation assay MCF7; assay type: cell-based; details: Homo sapiens, MCF7, 96 h, 4 days incubation, crystal violet
Source text: (§1) Cultivated human tumor cells (MCF7, […] human breast cancer cells, relative to ATCC HTB22; NCI-H460, human non-small-cell lung cancer cells, ATCC HTB-177, HCT 116, human colon cancer cells, ATCC CCL-247; DU 145, hormone-independent human prostate cancer cells, ATCC HTB-81; MaTu-MDR, hormone-independent, multiple pharmaceutical agent-resistant human breast cancer cells, EPO-GmbH, Berlin) were flattened out at a density of about 5000 cells/measuring point, depending on growth rates of the respective cells in a 96-well multititer plate in 200 μl of the corresponding growth medium. After 24 hours, the cells of one plate (zero-point plate) were colored with crystal violet (see below), while the medium of the other plates was replaced by fresh culture medium (200 μl), to which the test substances were added at various concentrations (0 μmol, as well as in the range of 0.01-30 μmol; the final concentration of the solvent dimethyl sulfoxide was 0.5%). The cells were incubated for 4 days in the presence of test substances. The cell proliferation was determined by coloring the cells with crystal violet: the cells were fixed by adding 20 μl/measuring point of an 11% glutaric aldehyde solution for 15 minutes at room temperature. After three washing cycles of the fixed cells with water, the plates were dried at room temperature. The cells were colored by adding 100 μl/measuring point of a 0.1% crystal violet solution (pH was set at 3 by adding acetic acid). After three washing cycles of the colored cells with water, the plates were dried at room temperature. The dye was dissolved by adding 100 μl/measuring point of a 10% acetic acid solution. The extinction was determined by photometry at a wavelength of 595 nm. The change of cell growth, in percent, was calculated by standardization of the measured values to the extinction values of the zero-point plate (=0%) and the extinction of the untreated (0 μm) cells (=100%).

HCT116 = assay: Proliferation assay HCT116; assay type: cell-based; details: Homo sapiens, HCT-116, 96 h; Table II; 4 days incubation, crystal violet
Source text: as §1

CDK1/CycB = biological target: T1, CDK1/CycB (Homo sapiens, UniProt P06493); assay: CDK1/CycB kinase assay; assay type: biochemical; details: Table I
T1 construct: GST; purchased ProQinase GmbH, Freiburg; host or cells: baculovirus-infected insect cells (Sf9)
T1 sequence (P06493 whole entry): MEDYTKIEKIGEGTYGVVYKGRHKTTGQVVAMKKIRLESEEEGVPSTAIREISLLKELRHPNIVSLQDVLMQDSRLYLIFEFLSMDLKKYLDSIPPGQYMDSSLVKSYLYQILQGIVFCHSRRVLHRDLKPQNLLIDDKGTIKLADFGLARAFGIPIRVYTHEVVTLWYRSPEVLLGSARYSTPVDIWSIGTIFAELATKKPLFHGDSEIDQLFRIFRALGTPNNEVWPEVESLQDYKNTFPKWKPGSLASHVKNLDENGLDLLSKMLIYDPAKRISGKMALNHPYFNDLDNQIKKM
T1 sequence (P14635 whole entry partner): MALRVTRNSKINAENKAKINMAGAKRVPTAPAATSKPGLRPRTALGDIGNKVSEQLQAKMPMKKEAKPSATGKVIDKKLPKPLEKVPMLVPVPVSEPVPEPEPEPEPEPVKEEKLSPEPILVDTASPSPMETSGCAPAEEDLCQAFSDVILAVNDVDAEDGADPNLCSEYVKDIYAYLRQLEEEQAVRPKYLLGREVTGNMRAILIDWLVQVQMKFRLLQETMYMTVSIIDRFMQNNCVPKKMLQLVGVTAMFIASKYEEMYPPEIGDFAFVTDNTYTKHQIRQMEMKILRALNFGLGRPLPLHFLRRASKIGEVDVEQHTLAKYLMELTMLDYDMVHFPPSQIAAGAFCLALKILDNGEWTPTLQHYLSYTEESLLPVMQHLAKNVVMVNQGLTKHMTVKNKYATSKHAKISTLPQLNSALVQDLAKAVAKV
Experimental: Recombinant CDK1- and CycB-GST fusion proteins, purified from baculovirus-infected insect cells (Sf9), were purchased from ProQinase GmbH, Freiburg. Histone IIIS, which was used as a kinase substrate, is commercially available from the Sigma Company.
CDK1/CycB (200 ng/measuring point) was incubated for 15 minutes at 22° C. in the presence of various concentrations of test substances (0 μm, as well as within the range of 0.01-100 μm) in assay buffer [50 mmol of tris/HCl, pH 8.0, 10 mmol of MgCl2, 0.1 mmol of Na ortho-vanadate, 1.0 mmol of dithiothreitol, 0.5 μm of adenosine triphosphate (ATP), 10 μg/measuring point of histone IIIS, 0.2 μCi/measuring point of 33P-gamma ATP, 0.05% NP40, 12.5% dimethyl sulfoxide]. The reaction was stopped by adding EDTA solution (250 mmol, pH 8.0, 14 μl/measuring point).
From each reaction batch, 10 μl was applied to P30 filter strips (Wallac Company), and non-incorporated 33P-ATP was removed by three washing cycles of the filter strips for 10 minutes each in 0.5% phosphoric acid. After the filter strips were dried for 1 hour at 70° C., the filter strips were covered with scintillator strips (MeltiLex™ A, Wallac Company) and baked for one hour at 90° C. The amount of incorporated 33P (substrate phosphorylation) was determined by scintillation measurement in a gamma-radiation measuring device (Wallac).

DU145 = assay: Proliferation assay DU145; assay type: cell-based; details: Homo sapiens, DU-145, 96 h; Table II; 4 days incubation, crystal violet
Source text: as §1

[1] = biological target: T2, VEGF Receptor tyrosine kinase-2 (Homo sapiens, UniProt P35968); assay: VEGF Rezeptor-2 kinase assay; assay type: biochemical; details: Table I; read-out: VEGF-R2 IC50
T2 construct: GST; made in house; host or cells: baculovirus-infected insect cells (Sf9)
T2 sequence (P35968 20-1356): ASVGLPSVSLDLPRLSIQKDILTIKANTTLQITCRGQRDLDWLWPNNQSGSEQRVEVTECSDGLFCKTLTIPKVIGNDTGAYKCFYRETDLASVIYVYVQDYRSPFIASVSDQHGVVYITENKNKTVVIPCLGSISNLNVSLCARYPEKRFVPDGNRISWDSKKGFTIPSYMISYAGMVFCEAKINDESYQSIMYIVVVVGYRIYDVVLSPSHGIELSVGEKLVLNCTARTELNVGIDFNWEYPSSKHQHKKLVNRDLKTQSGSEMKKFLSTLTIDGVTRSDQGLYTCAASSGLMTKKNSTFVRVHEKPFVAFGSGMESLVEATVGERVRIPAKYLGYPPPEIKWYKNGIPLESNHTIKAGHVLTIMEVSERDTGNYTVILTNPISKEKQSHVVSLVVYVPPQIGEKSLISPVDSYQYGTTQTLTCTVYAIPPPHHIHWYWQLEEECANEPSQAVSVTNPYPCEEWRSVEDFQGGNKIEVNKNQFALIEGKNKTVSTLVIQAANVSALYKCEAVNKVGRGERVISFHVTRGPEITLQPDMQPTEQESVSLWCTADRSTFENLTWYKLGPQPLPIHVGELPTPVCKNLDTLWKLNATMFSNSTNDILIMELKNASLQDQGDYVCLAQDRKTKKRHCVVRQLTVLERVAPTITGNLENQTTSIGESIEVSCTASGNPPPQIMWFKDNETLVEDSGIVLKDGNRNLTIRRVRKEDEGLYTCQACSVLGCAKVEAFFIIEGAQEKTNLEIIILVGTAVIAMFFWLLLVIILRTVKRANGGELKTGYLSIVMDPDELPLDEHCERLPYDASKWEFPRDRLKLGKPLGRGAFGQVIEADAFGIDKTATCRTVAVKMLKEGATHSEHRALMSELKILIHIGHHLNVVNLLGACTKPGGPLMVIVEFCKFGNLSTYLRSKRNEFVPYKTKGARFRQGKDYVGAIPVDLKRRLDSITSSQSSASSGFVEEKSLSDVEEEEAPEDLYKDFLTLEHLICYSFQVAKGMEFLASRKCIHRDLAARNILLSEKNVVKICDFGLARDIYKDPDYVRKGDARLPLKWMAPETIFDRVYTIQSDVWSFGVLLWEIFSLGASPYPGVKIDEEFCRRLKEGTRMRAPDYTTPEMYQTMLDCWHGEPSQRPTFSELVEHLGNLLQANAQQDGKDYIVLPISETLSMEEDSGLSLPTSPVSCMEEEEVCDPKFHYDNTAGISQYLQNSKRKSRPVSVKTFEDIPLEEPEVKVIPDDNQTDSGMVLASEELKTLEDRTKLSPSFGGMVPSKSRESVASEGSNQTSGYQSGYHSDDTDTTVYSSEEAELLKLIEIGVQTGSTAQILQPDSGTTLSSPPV
Experimental: VEGF Rezeptor-2 Kinase Assay
Recombinant VEGF Receptor tyrosine kinase-2 was purified as GST-fusion protein from baculovirus-infected insect cells (Sf9). Poly-(Glu4Tyr), which was used as a kinase substrate, was purchased from the Sigma Company.
VEGF Receptor tyrosine kinase (90 ng/measuring point) was incubated for 10 minutes at 22° C. in the presence of various concentrations of test substances (0 μmol, as well as within the range of 0.001-30 μM) in 30 μl of assay buffer [40 mmol of Tris/HCl […], 10 mmol of MgCl2, 1 mmol of MnCl2, 3 μmol of Na orthovanadate, 1.0 mmol of dithiothreitol, 8 μmol of adenosine trisphosphate (ATP), 27 μg/measuring point of poly-(Glu4Tyr), 0.2 μCi/measuring point of ^33P-gamma ATP, 1% dimethyl sulfoxide]. The reaction was stopped by adding EDTA solution (250 mmol, pH 7.0, 10 μl/measuring point).
From each reaction batch, 10 μl was applied to P30 filter strips (Wallac Company), and non-incorporated 33P-ATP was removed by subjecting the filter strips to three washing cycles for 10 minutes each in 0.5% phosphoric acid. After the filter strips were dried for 1 hour at 70° C., the filter strips were covered with scintillator strips (MeltiLex™ A, Wallac Company) and baked on for 1 hour at 90° C. The amount of incorporated 33P (substrate phosphorylation) was determined by scintillation measurement in a gamma-radiation measuring device (Wallac).

CDK2/CycE = biological target: T3, CDK2/CycE (Homo sapiens, UniProt P24941); assay: CDK2/CycE kinase assay; assay type: biochemical
T3 construct: GST; purchased ProQinase GmbH, Freiburg; host or cells: baculovirus-infected insect cells (Sf9)
Experimental: Recombinant CDK2- and CycE-GST-fusion proteins, purified from baculovirus-infected insect cells (Sf9), were purchased from ProQinase GmbH, Freiburg. Histone IIIS, which was used as a kinase substrate, was purchased from the Sigma Company.
The reaction was stopped by adding EDTA solution (250 mmol, pH 8.0, 14 μl/measuring point).
From each reaction batch, 10 μl was applied to P30 filter strips (Wallac Company), and non-incorporated ^33P-ATP was removed by subjecting the filter strips to three washing cycles for 10 minutes each in 0.5% phosphoric acid. After the filter strips were dried for one hour at 70° C., the filter strips were covered with scintillator strips (MeltiLex™ A, Wallac Company) and baked for one hour at 90° C. The amount of incorporated ^33P (substrate phosphorylation) was determined by scintillation measurement in a gamma-radiation measuring device (Wallac).

MaTu-ADR = assay: Proliferation assay MaTu-ADR; assay type: cell-based; details: Homo sapiens, 96 h; Table II; 4 days incubation, crystal violet; read-out: Proliferation IC50 MaTu-ADR
Source text: as §1

H460 = assay: Proliferation assay H460; assay type: cell-based; details: Homo sapiens, NCI-H460, 96 h; Table II; 4 days incubation, crystal violet
Source text: as §1

[2] = Table II, read-out: Proliferation IC50 MCF7
[3] = Table I, read-out: CDK2/CycE IC50
[4] = Table II, read-out: Inhibition IC50 CDK2/CycE

Q: How did the IC50 (MCF7; Table I, read-out: MCF7 IC50) turn out when `O=S1(=O)NCCC(CO)Nc2nc(ncc2Br)Nc2cccc1c2` (racemic) [Example 1.3, rac-1^5-Bromo-4-thia-2,5,9-triaza-1(2,4)-pyrimidina-3(1,3)-benzenacyclonaphane-8-methanol-4,4-dioxide Hydrochloride] was run?
A: 1000 nM

Q: And the IC50 (MCF7; [2])?
A: 1000 nM

Q: What about the IC50 (HCT116) of the same compound?
A: 900 nM

Q: And the IC50 (CDK1/CycB)?
A: 28 nM

Q: And the IC50 (DU145)?
A: 2900 nM

Q: And the IC50 [1]?
A: < 10 nM

Q: And the IC50 (CDK2/CycE; [3])?
A: 23 nM

Q: And the IC50 (CDK2/CycE; [4])?
A: 23 nM

Q: What about the IC50 (MaTu-ADR) of the same compound?
A: 2800 nM

Q: What about the IC50 (H460) of the same compound?
A: 1700 nM

Q: Which IC50 (MCF7; Table I, read-out: MCF7 IC50) does the source give for `O=[N+]([O-])c1cc2cc(c1)S(=O)(=O)NCCCNc1nc(ncc1Br)N2` [Example 1.5, 1^5-Bromo-3^5-nitro-4-thia-2,5,9-triaza-1(2,4)-pyrimidina-3(1,3)-benzenacyclononaphane-4,4-dioxide hydrochloride] here?
A: 900 nM

Q: What about the IC50 (MCF7; [2]) of the same compound?
A: 900 nM

Q: And the IC50 (HCT116)?
A: 400 nM

Q: What about the IC50 (CDK1/CycB) of the same compound?
A: 28 nM

Q: And the IC50 (DU145)?
A: 1300 nM

Q: What about the IC50 [1] of the same compound?
A: 69 nM

Q: And the IC50 (MaTu-ADR)?
A: 600 nM

Q: What about the IC50 (H460) of the same compound?
A: 600 nM

Q: For `NS(=O)(=O)c1ccc2cc1OCCCCNc1nc(ncc1Br)N2` [Example 8.0, 1^5-Bromo-4-oxa-2,9-diaza-1(2,4)-pyrimidina-3(1,3)-benzenacyclononaphane-3^4-sulfonamide], which IC50 (MCF7; Table I, read-out: MCF7 IC50) is on record?
A: 1300 nM

Q: What about the IC50 (MCF7; [2]) of the same compound?
A: 1300 nM

Q: And the IC50 (HCT116)?
A: 400 nM

Q: And the IC50 (CDK1/CycB)?
A: 80 nM

Q: And the IC50 (DU145)?
A: 500 nM

Q: And the IC50 [1]?
A: 140 nM

Q: What about the IC50 (CDK2/CycE; [3]) of the same compound?
A: 130 nM

Q: What about the IC50 (CDK2/CycE; [4]) of the same compound?
A: 130 nM

Q: And the IC50 (MaTu-ADR)?
A: 400 nM

Q: And the IC50 (H460)?
A: 500 nM
